The text below walks through data of paper PMC5377010 (International Journal for Parasitology: Drugs and Drug …, 2017).

In data set [1] the target is T1, Elongation Factor 1Bγ (gEF1Bγ) (Giardia duodenalis, UniProt A8BFR0).
T1 sequence (A8BFR0 1-402): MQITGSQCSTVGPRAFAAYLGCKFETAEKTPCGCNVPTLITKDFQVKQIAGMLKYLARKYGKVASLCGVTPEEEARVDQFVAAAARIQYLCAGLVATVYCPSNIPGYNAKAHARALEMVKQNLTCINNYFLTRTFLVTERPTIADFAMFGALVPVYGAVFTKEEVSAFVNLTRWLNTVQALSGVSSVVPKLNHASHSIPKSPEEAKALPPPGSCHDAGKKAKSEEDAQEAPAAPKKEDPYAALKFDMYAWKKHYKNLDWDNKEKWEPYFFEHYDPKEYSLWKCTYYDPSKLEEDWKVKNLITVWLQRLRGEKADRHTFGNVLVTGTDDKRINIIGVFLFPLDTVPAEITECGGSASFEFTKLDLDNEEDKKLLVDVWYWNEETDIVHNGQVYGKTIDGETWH
In words: intrinsic protein fluorescence quenching. It counts as binding.

In data set [2] the target is T2, Thioredoxin Reductase (gTrxR) (Giardia duodenalis, UniProt E2RU27).
T2 sequence (E2RU27 1-314): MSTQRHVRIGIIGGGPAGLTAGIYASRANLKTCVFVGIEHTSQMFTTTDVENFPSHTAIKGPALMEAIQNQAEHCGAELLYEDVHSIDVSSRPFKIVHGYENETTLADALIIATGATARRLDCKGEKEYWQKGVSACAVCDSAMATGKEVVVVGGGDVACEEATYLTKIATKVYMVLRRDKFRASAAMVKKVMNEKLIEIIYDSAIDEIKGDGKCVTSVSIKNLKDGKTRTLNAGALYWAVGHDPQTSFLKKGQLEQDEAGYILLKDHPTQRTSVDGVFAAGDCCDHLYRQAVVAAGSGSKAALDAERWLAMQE
The data set is described as follows: intrinsic protein fluorescence quenching. The class given is binding.

Substrate in data set [3]: O=C(O)c1cc(SSc2ccc([N+](=O)[O-])c(C(=O)O)c2)ccc1[N+](=O)[O-]
The data set is described as follows: purified protein. Particulars: FAD; NADPH site partially overlapping that of NBDHEX.

Substrate in data set [4]: NC(=O)C1=CN([C@@H]2O[C@H](COP(=O)(O)OP(=O)(O)OC[C@H]3O[C@@H](n4cnc5c(N)ncnc54)[C@H](OP(=O)(O)O)[C@@H]3O)[C@@H](O)[C@H]2O)C=CC1
The data set is described as follows: purified protein. As to conditions: FAD NADPH-binding domain.

Where only a bound is given, the exact number is not on record here.

Take `O=[N+]([O-])c1ccc(SCCCCCCO)c2nonc12` [NBDHEX, 6-(7-nitro-2,1,3-benzoxadiazol-4-ylthio)hexanol]: the results for the equilibrium dissociation constant (Kd) in data set [1] and in data set [2] were under 400 nM and 140 ± 50 nM, respectively.

B1: Thioredoxin Reductase (gTrxR) (Giardia lamblia ATCC 50803) (protein)
chain: MSTQRHVRIGIIGGGPAGLTAGIYASRANLKTCVFVGIEHTSQMFTTTDVENFPSHTAIKGPALMEAIQNQAEHCGAELLYEDVHSIDVSSRPFKIVHGYENETTLADALIIATGATARRLDCKGEKEYWQKGVSACAVCDSAMATGKEVVVVGGGDVACEEATYLTKIATKVYMVLRRDKFRASAAMVKKVMNEKLIEIIYDSAIDEIKGDGKCVTSVSIKNLKDGKTRTLNAGALYWAVGHDPQTSFLKKGQLEQDEAGYILLKDHPTQRTSVDGVFAAGDCCDHLYRQAVVAAGSGSKAALDAERWLAMQE
On to B1, for which the values for the Km in data set [3] and in data set [4] were 1500 ± 100 µM and 2.6 ± 0.6 µM, respectively.
